Measured values: PubChem BioAssay (NCI)
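Cells were grown in 96-well plates and exposed to each compound for 48 hours at five concentrations; endpoints were interpolated linearly between bracketing concentrations, or set to the highest concentration if not reached. Definition used: TGI = concentration required for complete inhibition of growth.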

Legend:
Experiment in all cases: NCI-60 cell line screen, 48 h
SNB-78 CNS = system: SNB-78 CNS
U251 CNS = system: U251 CNS
CCRF-CEM leukemia = system: CCRF-CEM leukemia
SK-MEL-2 melanoma = system: SK-MEL-2 melanoma
NCI-H226 lung = system: NCI-H226 lung
SNB-19 CNS = system: SNB-19 CNS
OVCAR-8 ovarian = system: OVCAR-8 ovarian
DLD-1 colon = system: DLD-1 colon
UACC-257 melanoma = system: UACC-257 melanoma
M19-MEL melanoma = system: M19-MEL melanoma
EKVX NSCLC = system: EKVX NSCLC
K-562 leukemia = system: K-562 leukemia
KM20L2 colon = system: KM20L2 colon
SF-539 CNS = system: SF-539 CNS
SK-MEL-5 melanoma = system: SK-MEL-5 melanoma
786-0 renal = system: 786-0 renal
HCC-2998 colon = system: HCC-2998 colon
HCT-116 colon = system: HCT-116 colon
SF-295 CNS = system: SF-295 CNS
NCI-H460 lung = system: NCI-H460 lung
XF 498 CNS = system: XF 498 CNS
CAKI-1 renal = system: CAKI-1 renal
UACC-62 melanoma = system: UACC-62 melanoma
LXFL 529 NSCLC = system: LXFL 529 NSCLC
M14 melanoma = system: M14 melanoma
MALME-3M melanoma = system: MALME-3M melanoma
HOP-92 NSCLC = system: HOP-92 NSCLC
HCT-15 colon = system: HCT-15 colon
TK-10 renal = system: TK-10 renal
MOLT-4 leukemia = system: MOLT-4 leukemia
SW-620 colon = system: SW-620 colon
SK-MEL-28 melanoma = system: SK-MEL-28 melanoma
UO-31 renal = system: UO-31 renal
SF-268 CNS = system: SF-268 CNS
OVCAR-5 ovarian = system: OVCAR-5 ovarian
SNB-75 CNS = system: SNB-75 CNS
A498 renal = system: A498 renal
NCI-H522 lung = system: NCI-H522 lung
OVCAR-3 ovarian = system: OVCAR-3 ovarian
DMS 273 small cell lung = system: DMS 273 small cell lung
HL-60(TB) leukemia = system: HL-60(TB) leukemia
OVCAR-4 ovarian = system: OVCAR-4 ovarian
KM12 colon = system: KM12 colon
LOX IMVI melanoma = system: LOX IMVI melanoma
SR leukemia = system: SR leukemia
HOP-62 NSCLC = system: HOP-62 NSCLC
SN12C renal = system: SN12C renal
HOP-18 NSCLC = system: HOP-18 NSCLC
SK-OV-3 ovarian = system: SK-OV-3 ovarian
ACHN renal = system: ACHN renal
A549 NSCLC = system: A549 NSCLC
COLO 205 colon = system: COLO 205 colon
IGROV1 ovarian = system: IGROV1 ovarian
NCI-H23 lung = system: NCI-H23 lung
RXF 393 renal = system: RXF 393 renal
RPMI-8226 leukemia = system: RPMI-8226 leukemia
DMS 114 small cell lung = system: DMS 114 small cell lung
HT29 colon = system: HT29 colon

For `COc1ccc(Nc2nc3c(N)cc(C(F)(F)F)cc3nc2-c2ccccc2)cc1OC`, the TGI (SNB-78 CNS) was 75.7 µM, the TGI (U251 CNS) was 42.8 µM and the TGI (CCRF-CEM leukemia) was over 100 µM. The TGI (SK-MEL-2 melanoma) was 69.1 µM, the TGI (NCI-H226 lung) was 57.9 µM and the TGI (SNB-19 CNS) was 53.8 µM. The TGI (OVCAR-8 ovarian) was 43.2 µM, the TGI (DLD-1 colon) was over 100 µM and the TGI (UACC-257 melanoma) was 63.9 µM. The TGI (M19-MEL melanoma) was 60.4 µM, the TGI (EKVX NSCLC) was 59.7 µM and the TGI (K-562 leukemia) was over 100 µM. For the same molecule, the TGI (KM20L2 colon) was over 100 µM, the TGI (SF-539 CNS) was 39.6 µM and the TGI (SK-MEL-5 melanoma) was 62.3 µM. For the same molecule, the TGI (786-0 renal) was 28.9 µM, the TGI (HCC-2998 colon) was 89.6 µM and the TGI (HCT-116 colon) was over 100 µM. It also gave a TGI (SF-295 CNS) of 44.8 µM, a TGI (NCI-H460 lung) of over 100 µM and a TGI (XF 498 CNS) of 33.1 µM. For the same molecule, the TGI (CAKI-1 renal) was 42.5 µM, the TGI (UACC-62 melanoma) was 44.6 µM and the TGI (LXFL 529 NSCLC) was 46.4 µM. For the same molecule, the TGI (M14 melanoma) was over 100 µM, the TGI (MALME-3M melanoma) was 38.5 µM and the TGI (HOP-92 NSCLC) was 46.3 µM. It also gave a TGI (HCT-15 colon) of over 100 µM, a TGI (TK-10 renal) of 47.3 µM and a TGI (MOLT-4 leukemia) of over 100 µM. It also gave a TGI (SW-620 colon) of over 100 µM, a TGI (SK-MEL-28 melanoma) of over 100 µM and a TGI (UO-31 renal) of 95.3 µM. For the same molecule, the TGI (SF-268 CNS) was 71.1 µM, the TGI (OVCAR-5 ovarian) was over 100 µM and the TGI (SNB-75 CNS) was 17.5 µM. It also gave a TGI (A498 renal) of 70 µM, a TGI (NCI-H522 lung) of 43.9 µM and a TGI (OVCAR-3 ovarian) of 42.9 µM. It also gave a TGI (DMS 273 small cell lung) of over 100 µM, a TGI (HL-60(TB) leukemia) of over 100 µM and a TGI (OVCAR-4 ovarian) of 33.8 µM. It also gave a TGI (KM12 colon) of over 100 µM, a TGI (LOX IMVI melanoma) of over 100 µM and a TGI (SR leukemia) of over 100 µM. The TGI (HOP-62 NSCLC) was 57.8 µM, the TGI (SN12C renal) was 47.1 µM and the TGI (HOP-18 NSCLC) was 43.8 µM. The TGI (SK-OV-3 ovarian) was 28.6 µM, the TGI (ACHN renal) was 27.5 µM and the TGI (A549 NSCLC) was 66.1 µM. For the same molecule, the TGI (COLO 205 colon) was over 100 µM, the TGI (IGROV1 ovarian) was 69.7 µM and the TGI (NCI-H23 lung) was over 100 µM. For the same molecule, the TGI (RXF 393 renal) was 50.2 µM.
Molecule `Oc1ccc(-c2nc(=S)[nH][nH]2)cc1` has a TGI (SNB-78 CNS) of over 100 µM, a TGI (U251 CNS) of over 100 µM and a TGI (CCRF-CEM leukemia) of over 100 µM. It also gave a TGI (SK-MEL-2 melanoma) of over 100 µM, a TGI (NCI-H226 lung) of over 100 µM and a TGI (SNB-19 CNS) of over 100 µM. The TGI (OVCAR-8 ovarian) was over 100 µM, the TGI (DLD-1 colon) was over 100 µM and the TGI (UACC-257 melanoma) was over 100 µM. For the same molecule, the TGI (M19-MEL melanoma) was over 100 µM, the TGI (EKVX NSCLC) was over 100 µM and the TGI (K-562 leukemia) was over 100 µM. It also gave a TGI (KM20L2 colon) of over 100 µM, a TGI (SF-539 CNS) of over 100 µM and a TGI (SK-MEL-5 melanoma) of over 100 µM. For the same molecule, the TGI (786-0 renal) was over 100 µM, the TGI (RPMI-8226 leukemia) was over 100 µM and the TGI (HCT-116 colon) was over 100 µM. The TGI (SF-295 CNS) was over 100 µM, the TGI (NCI-H460 lung) was over 100 µM and the TGI (XF 498 CNS) was over 100 µM. It also gave a TGI (CAKI-1 renal) of over 100 µM, a TGI (UACC-62 melanoma) of over 100 µM and a TGI (LXFL 529 NSCLC) of over 100 µM. The TGI (M14 melanoma) was over 100 µM, the TGI (MALME-3M melanoma) was over 100 µM and the TGI (HOP-92 NSCLC) was over 100 µM. For the same molecule, the TGI (HCT-15 colon) was over 100 µM, the TGI (TK-10 renal) was over 100 µM and the TGI (MOLT-4 leukemia) was over 100 µM. The TGI (SW-620 colon) was over 100 µM, the TGI (SK-MEL-28 melanoma) was over 100 µM and the TGI (UO-31 renal) was over 100 µM. For the same molecule, the TGI (SF-268 CNS) was over 100 µM, the TGI (OVCAR-5 ovarian) was over 100 µM and the TGI (SNB-75 CNS) was over 100 µM. It also gave a TGI (A498 renal) of over 100 µM, a TGI (NCI-H522 lung) of over 100 µM and a TGI (OVCAR-3 ovarian) of over 100 µM. The TGI (DMS 273 small cell lung) was over 100 µM, the TGI (HL-60(TB) leukemia) was over 100 µM and the TGI (OVCAR-4 ovarian) was over 100 µM. For the same molecule, the TGI (KM12 colon) was over 100 µM, the TGI (DMS 114 small cell lung) was over 100 µM and the TGI (SR leukemia) was over 100 µM. The TGI (HOP-62 NSCLC) was over 100 µM, the TGI (SN12C renal) was over 100 µM and the TGI (HOP-18 NSCLC) was over 100 µM. The TGI (HT29 colon) was over 100 µM, the TGI (SK-OV-3 ovarian) was over 100 µM and the TGI (ACHN renal) was over 100 µM. For the same molecule, the TGI (A549 NSCLC) was over 100 µM, the TGI (COLO 205 colon) was over 100 µM and the TGI (IGROV1 ovarian) was over 100 µM. It also gave a TGI (NCI-H23 lung) of over 100 µM.
